In paper PMC4774911, “Biochemical Screening of Five Protein Kinases from Plasmodium falciparum against 14,000 Cell-Active Compounds” (PLoS ONE, 2016):
“And” between values parts separate entries of the source, which are not always exact repeats. Equal entries are not always repeated.

Assays:
Assay in all cases: biochemical
Parameters in all cases: endogenous in cells; host or cells: K562 cell extract; species or system K562 (extract); replicate k of n = 2 (each experiment ID is one independent experiment; two experiment IDs per compound)
Settings in all cases: read-out: KDapp
MERTK = molecular target: T1, MERTK (Homo sapiens, UniProt Q12866)
T1 sequence (Q12866 1-999): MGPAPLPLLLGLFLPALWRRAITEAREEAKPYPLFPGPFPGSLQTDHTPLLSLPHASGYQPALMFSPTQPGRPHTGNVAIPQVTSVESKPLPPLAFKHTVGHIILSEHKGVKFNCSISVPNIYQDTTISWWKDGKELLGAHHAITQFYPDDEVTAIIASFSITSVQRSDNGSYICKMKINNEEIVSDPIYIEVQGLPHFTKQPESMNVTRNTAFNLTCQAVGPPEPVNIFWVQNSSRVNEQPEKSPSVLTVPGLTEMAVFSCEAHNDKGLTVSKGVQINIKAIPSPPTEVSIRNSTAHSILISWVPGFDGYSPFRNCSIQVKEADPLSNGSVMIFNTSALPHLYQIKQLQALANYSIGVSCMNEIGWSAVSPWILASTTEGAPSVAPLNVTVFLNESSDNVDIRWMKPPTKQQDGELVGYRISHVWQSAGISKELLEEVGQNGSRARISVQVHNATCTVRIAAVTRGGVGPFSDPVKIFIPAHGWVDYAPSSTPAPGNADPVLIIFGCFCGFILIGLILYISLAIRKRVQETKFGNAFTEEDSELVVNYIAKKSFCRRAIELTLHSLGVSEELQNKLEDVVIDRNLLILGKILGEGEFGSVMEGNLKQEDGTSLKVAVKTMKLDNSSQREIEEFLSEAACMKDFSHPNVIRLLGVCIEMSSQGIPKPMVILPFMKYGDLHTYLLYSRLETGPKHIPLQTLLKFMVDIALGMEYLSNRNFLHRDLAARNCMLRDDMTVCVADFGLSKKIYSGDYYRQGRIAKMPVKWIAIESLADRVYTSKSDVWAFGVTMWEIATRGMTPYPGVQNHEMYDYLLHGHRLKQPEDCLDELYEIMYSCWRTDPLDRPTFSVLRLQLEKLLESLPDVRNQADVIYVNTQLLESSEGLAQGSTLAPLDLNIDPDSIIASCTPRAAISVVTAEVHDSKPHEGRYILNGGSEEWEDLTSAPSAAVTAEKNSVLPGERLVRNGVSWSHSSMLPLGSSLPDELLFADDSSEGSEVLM

DDR1 = DDR1 (Homo sapiens, UniProt Q08345)
PAK4 = PAK4 (Homo sapiens, UniProt O96013)
ABL2 = ABL2 (Homo sapiens, UniProt P42684)
PIP5K3 = PIP5K3 (Homo sapiens, UniProt Q9Y2I7)
CSNK1A1 = CSNK1A1 (Homo sapiens, UniProt P48729)
STK11 = molecular target: T2, STK11 (Homo sapiens, UniProt Q15831)
T2 sequence (Q15831 1-433): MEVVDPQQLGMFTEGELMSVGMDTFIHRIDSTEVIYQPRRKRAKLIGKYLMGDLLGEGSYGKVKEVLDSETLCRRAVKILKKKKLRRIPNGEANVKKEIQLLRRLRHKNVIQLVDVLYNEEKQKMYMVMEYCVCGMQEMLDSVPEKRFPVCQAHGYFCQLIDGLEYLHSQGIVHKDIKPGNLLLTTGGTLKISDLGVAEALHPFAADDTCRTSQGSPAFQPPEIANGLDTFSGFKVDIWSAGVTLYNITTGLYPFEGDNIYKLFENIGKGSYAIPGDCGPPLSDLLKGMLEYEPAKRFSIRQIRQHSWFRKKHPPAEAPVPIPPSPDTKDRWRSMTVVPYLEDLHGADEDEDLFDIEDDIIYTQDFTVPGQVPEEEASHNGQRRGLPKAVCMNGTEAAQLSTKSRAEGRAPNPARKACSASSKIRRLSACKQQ

PIP5K3, sequence (Q9Y2I7 whole entry): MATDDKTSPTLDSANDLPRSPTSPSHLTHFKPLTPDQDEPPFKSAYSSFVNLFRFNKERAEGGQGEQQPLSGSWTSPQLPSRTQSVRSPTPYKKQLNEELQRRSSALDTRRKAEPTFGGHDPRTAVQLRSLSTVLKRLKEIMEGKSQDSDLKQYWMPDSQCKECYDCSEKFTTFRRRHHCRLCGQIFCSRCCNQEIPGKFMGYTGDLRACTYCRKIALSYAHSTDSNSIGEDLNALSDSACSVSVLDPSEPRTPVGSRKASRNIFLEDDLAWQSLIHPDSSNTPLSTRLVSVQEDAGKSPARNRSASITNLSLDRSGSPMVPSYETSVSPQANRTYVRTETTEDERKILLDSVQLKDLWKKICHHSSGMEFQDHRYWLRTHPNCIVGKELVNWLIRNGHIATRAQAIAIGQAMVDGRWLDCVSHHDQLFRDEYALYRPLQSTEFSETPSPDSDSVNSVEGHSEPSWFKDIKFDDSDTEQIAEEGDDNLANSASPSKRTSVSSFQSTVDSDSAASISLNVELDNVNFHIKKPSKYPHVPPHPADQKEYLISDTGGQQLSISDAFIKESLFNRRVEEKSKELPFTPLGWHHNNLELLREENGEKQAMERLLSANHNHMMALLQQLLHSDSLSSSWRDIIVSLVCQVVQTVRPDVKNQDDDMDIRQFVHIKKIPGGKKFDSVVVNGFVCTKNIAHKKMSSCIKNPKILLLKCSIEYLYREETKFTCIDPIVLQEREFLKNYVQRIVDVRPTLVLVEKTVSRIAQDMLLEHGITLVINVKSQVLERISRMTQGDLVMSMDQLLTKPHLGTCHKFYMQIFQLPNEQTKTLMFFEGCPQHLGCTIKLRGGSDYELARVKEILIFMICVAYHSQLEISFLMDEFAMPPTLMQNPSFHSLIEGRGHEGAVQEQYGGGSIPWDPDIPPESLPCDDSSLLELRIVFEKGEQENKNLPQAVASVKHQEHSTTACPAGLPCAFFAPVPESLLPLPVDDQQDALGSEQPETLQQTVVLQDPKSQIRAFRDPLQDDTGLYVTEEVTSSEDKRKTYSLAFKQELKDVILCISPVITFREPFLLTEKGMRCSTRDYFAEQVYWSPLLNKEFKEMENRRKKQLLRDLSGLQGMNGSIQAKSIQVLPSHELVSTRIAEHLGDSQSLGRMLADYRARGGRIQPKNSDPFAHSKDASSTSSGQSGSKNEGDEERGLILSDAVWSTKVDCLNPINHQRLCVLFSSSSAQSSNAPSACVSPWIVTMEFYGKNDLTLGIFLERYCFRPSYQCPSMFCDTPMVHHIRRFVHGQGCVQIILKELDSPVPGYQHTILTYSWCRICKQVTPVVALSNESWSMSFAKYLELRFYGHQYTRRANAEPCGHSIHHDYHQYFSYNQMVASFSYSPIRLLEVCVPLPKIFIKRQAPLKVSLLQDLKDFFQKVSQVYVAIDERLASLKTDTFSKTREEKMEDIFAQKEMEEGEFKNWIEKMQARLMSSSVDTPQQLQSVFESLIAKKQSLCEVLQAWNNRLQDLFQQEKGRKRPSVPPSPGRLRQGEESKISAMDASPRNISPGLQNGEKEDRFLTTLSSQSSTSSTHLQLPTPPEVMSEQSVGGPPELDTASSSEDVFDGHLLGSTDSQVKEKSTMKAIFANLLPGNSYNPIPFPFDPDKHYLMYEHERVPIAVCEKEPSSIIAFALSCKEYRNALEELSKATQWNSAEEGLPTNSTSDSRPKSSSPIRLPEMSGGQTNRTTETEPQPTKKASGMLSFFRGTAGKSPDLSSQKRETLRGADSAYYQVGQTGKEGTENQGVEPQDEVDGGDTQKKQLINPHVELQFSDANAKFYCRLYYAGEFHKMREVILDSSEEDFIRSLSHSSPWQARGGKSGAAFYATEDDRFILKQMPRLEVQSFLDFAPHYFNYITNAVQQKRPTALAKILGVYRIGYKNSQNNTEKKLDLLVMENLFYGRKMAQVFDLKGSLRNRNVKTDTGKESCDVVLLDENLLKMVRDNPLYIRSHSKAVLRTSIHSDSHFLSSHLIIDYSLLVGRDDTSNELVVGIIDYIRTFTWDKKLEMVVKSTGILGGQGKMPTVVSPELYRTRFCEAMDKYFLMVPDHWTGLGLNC
CSNK1A1, sequence (P48729 whole entry): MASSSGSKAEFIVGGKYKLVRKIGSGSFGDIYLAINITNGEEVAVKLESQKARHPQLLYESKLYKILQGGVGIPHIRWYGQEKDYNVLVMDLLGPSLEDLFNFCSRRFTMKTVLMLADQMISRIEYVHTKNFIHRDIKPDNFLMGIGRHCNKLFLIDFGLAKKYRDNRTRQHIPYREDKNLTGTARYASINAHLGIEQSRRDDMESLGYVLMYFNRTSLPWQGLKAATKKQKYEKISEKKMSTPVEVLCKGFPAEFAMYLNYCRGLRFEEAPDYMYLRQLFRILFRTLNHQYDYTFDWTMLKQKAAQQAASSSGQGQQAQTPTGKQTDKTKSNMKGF
PAK4, sequence (O96013 whole entry): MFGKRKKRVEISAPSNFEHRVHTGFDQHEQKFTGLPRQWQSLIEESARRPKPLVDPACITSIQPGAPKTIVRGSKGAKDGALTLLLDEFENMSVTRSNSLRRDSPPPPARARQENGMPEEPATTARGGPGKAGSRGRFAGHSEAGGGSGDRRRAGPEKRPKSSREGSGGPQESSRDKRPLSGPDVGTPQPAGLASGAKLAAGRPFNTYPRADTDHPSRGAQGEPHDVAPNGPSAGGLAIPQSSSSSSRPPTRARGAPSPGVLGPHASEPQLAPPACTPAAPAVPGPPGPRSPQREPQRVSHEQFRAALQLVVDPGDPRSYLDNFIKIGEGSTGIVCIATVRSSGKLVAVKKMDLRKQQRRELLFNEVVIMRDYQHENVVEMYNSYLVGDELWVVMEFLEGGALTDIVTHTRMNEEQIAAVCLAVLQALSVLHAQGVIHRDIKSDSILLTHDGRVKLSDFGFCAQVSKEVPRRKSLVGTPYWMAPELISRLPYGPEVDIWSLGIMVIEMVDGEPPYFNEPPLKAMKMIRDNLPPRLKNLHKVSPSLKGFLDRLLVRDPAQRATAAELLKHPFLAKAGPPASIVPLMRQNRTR
ABL2, sequence (P42684 whole entry): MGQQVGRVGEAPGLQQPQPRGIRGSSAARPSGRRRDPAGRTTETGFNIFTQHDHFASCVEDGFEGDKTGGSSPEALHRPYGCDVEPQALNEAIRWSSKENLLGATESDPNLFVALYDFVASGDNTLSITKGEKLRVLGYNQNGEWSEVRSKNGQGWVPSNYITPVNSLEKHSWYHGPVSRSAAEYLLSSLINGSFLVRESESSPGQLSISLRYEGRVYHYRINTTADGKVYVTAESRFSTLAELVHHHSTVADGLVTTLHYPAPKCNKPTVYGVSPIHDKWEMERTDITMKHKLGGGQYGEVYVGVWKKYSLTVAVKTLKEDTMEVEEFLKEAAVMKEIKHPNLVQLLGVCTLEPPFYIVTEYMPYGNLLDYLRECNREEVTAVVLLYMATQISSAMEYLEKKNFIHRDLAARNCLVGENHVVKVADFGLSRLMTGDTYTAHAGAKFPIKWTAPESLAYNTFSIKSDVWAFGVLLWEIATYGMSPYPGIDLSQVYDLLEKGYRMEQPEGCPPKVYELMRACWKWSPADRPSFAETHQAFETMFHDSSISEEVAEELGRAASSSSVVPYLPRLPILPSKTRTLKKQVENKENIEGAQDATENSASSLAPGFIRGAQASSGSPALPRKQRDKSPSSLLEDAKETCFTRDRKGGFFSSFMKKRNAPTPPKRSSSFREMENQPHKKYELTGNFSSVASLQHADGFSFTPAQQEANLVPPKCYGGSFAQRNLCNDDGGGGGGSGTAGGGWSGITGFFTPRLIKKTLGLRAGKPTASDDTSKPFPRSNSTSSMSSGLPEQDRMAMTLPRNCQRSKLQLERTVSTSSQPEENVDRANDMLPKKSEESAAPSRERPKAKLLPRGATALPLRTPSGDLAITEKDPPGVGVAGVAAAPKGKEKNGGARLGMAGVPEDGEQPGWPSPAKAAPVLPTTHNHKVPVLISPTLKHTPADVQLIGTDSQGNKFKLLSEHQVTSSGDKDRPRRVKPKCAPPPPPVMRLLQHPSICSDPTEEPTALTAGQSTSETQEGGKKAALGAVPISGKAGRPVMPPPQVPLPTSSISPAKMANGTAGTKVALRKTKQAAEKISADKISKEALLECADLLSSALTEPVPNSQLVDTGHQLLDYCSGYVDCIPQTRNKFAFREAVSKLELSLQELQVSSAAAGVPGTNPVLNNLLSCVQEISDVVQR
DDR1, sequence (Q08345 whole entry): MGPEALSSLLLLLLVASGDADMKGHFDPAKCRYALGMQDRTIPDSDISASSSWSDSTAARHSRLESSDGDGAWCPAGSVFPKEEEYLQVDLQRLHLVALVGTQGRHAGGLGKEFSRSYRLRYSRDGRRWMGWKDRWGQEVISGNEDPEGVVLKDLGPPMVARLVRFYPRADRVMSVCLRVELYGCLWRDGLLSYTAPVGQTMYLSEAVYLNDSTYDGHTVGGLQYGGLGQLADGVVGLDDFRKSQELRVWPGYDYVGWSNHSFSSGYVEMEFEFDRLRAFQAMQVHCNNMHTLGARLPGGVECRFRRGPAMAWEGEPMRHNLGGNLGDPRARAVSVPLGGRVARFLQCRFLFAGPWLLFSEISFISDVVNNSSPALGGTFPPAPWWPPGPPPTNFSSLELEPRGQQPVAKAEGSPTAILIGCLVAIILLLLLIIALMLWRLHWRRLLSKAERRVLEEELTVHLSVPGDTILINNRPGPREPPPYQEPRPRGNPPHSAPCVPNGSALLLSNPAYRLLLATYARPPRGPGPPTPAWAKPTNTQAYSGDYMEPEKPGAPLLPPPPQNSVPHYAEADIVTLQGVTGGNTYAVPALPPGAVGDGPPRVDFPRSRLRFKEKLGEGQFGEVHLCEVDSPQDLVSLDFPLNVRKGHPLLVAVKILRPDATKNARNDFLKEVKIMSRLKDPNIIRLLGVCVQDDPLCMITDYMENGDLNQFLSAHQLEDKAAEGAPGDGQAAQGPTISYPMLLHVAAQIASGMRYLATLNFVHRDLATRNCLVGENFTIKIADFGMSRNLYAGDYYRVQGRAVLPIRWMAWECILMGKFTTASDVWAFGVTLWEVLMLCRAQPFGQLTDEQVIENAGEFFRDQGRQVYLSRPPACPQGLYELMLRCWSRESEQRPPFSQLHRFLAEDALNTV

Row | SMILES | Kd (MERTK) [nM] | Kd (DDR1) | Kd (PAK4) | Kd (ABL2) | Kd (PIP5K3) | Kd (CSNK1A1) | Kd (STK11) [nM]
1 | CN(C)CC(O)COc1ccc(Nc2ncc([N+](=O)[O-])c(Nc3ccccc3O)n2)cc1.O=C(O)C(F)(F)F (stereo not drawn) [TCMDC-141399] | 567 | 5970 nM | 4850 nM and 3670 nM | 1890 nM | 3930 nM and 2770 nM | 7650 nM | 3940
2 | Cl.NCC1(c2nc(-c3ccc(Cl)c(O)c3)c(-c3ccncc3)[nH]2)CCCCC1 [TCMDC-141154] | 4800 | 977 nM | 4910 nM | 220 nM and 180 nM | 524 nM | 224 nM and 255 nM | 1250
3 | CN1CCN(c2ccc(Nc3ncc(C#N)c(Nc4ccccc4C(N)=O)n3)cc2)CC1.Cl [TCMDC-134116] | 325 | 326 nM and 266 nM | 205 nM and 227 nM | 89.8 nM and 71.9 nM | 681 nM and 785 nM | 742 nM and 1080 nM | 894
